Molecules are shown by their SMILES.

The results in this text go back to US20200216416A1, “QUINOLINE COMPOUNDS AS INHIBITORS OF TAM AND MET KINASES” (Array BioPharma Inc., priority 2019, published 2020).

Experiment [1] has as its target T1, MET (wt) GST-tagged recombinant human MET kinase domain (Homo sapiens, UniProt P08581).
T1 construct: GST-tagged recombinant human MET kinase domain; purchased Signal Chem
Nature of the experiment: c-Met Enzyme Assay, wild type (LanthaScreen Eu Kinase Binding). To be noted: averaged IC50; MET (wt) 10 nM; 60-minute incubation at 22° C.; read-out: SigChem WT IC50. Here is the method:
(§1) The affinity of compound binding to wild type and mutant human MET kinases was measured using Invitrogen's LanthaScreen™ Eu Kinase Binding technology. Briefly, GST-tagged recombinant human MET kinase domain from Signal Chem (see Table 8 below for concentration in assay) was incubated with 50 nM Alexa-Fluor® Tracer 236 (Invitrogen Cat No. PR9078A) and 2 nM Europium-anti-GST (Invitrogen Cat. No. A15116) along with test compound in a buffer consisting of 25 mM HEPES, pH 7.4, 10 mM MgCl2, 0.01% Triton X-100, 1mM DTT, and 2% DMSO. Compounds were typically prepared in a three-fold serial dilution in DMSO and added to the assay to give the appropriate final concentration. After a 60-minute incubation at 22° C., the reaction was measured using a PerkinElmer EnVision multimode plate reader via TR-FRET dual wavelength detection, and the percent of control (POC) calculated using a ratiometric emission factor. […] The POC values were fit to a 4 parameter logistic curve and the IC50 value is point where the curve crosses 50 POC.
A general note: In TR-FRET formats the signal depends on donor and acceptor labels being close together.

The target in experiment [2] is T2, His-tagged recombinant human MER cytoplasmic domain (Homo sapiens, UniProt Q12866).
T2 construct: His-tagged recombinant human MER cytoplasmic domain
T2 sequence (Q12866 527-999 limits assumed): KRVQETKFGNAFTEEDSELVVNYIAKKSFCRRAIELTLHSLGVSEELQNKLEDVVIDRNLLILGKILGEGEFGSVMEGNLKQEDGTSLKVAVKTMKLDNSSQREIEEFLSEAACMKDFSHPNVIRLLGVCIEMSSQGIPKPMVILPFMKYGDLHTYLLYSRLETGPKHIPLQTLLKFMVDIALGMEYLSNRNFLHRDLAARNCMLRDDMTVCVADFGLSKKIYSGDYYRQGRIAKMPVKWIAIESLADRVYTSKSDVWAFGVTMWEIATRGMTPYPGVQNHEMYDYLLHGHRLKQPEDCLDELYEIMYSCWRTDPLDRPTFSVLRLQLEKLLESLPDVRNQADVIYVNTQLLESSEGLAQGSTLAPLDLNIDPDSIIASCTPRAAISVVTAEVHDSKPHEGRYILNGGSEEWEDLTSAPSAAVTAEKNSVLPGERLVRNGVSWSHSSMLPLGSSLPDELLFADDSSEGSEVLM
Nature of the experiment: MER Enzyme Assay (LanthaScreen Eu Kinase Binding). As to conditions: averaged IC50; MER 5 nM; 60-minute incubation at 22° C.; TR-FRET. On the procedure:
(§2) Compounds disclosed herein were screened for their ability to inhibit […] kinase using Invitrogen's LanthaScreen™Eu Kinase Binding technology. His-tagged recombinant human MER cytoplasmic domain (5 nM) was incubated with 20 nM Alexa-Fluor® Tracer 236 (PR9078A), 2 nM biotinylated anti-His (Cat. No. M4408), and 2 nM europium-labeled Streptavidin (Cat. No. PV5899) along with test compound in a buffer consisting of 25 mM HEPES, pH 7.4, 10 mM MgCl 2, 0.01% Triton X-100, and 2% DMSO. Compounds were typically prepared in a threefold serial dilution in DMSO and added to the assay to give the appropriate final concentration. After a 60-minute incubation at 22° C., the reaction was measured using a PerkinElmer EnVision multimode plate reader via TR-FRET dual wavelength detection, and the percent of control (POC) was calculated using a ratiometric emission factor. […] The POC values are fit to a 4 parameter logistic curve and the IC50 value is point where the curve crosses 50 POC.

The target of another experiment is T3, human MET kinase D1228N (Homo sapiens, UniProt P08581, D1228N).
T3 construct: GST-tagged recombinant human MET kinase domain; purchased Signal Chem
Nature of the experiment: c-Met Enzyme Assay, D1228N mutant. The format is binding. To be noted: averaged IC50; D1228N 2 nM; 60-minute incubation at 22° C.; read-out: D1228 N IC50. Here is the method:
as §1

Experiment [3] deals with T4, His-tagged recombinant human AXL cytoplasmic domain (Homo sapiens, UniProt P30530).
T4 construct: His-tagged recombinant human AXL cytoplasmic domain
T4 sequence (P30530 473-894 limits assumed): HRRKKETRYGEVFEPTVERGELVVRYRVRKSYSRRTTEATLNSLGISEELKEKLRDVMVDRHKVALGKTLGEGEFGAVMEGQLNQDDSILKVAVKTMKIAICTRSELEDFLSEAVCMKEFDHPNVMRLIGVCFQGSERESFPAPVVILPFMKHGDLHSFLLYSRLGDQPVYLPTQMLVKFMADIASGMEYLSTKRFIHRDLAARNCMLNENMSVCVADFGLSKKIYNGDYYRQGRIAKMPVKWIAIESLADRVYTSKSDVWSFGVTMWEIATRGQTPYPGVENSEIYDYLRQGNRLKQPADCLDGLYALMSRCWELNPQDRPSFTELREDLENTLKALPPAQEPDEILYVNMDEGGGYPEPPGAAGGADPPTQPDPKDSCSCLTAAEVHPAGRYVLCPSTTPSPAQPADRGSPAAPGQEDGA
Nature of the experiment: AXL Enzyme Assay (LanthaScreen Eu Kinase Binding). As to conditions: averaged IC50; 60-minute incubation at 22° C.; TR-FRET. On the procedure: as §2, with “AXL” for “MER”, “domain” for “domain (5 nM)”, “MgCl2,” for “MgCl 2,”

The next experiment addresses T5, human MET kinase D1228H (Homo sapiens, UniProt P08581, D1228H).
T5 construct: GST-tagged recombinant human MET kinase domain; purchased Signal Chem
Nature of the experiment: c-Met Enzyme Assay, D1228H mutant. As to conditions: averaged IC50; D1228H 2 nM; 60-minute incubation at 22° C.; read-out: D1228 H IC50. Format: binding. Here is the method: as §1

Another experiment addresses T6, human MET kinase Y1230H (Homo sapiens, UniProt P08581, Y1230H).
T6 construct: GST-tagged recombinant human MET kinase domain; purchased Signal Chem
Nature of the experiment: c-Met Enzyme Assay, Y1230H mutant. The format is binding. As to conditions: averaged IC50; Y1230H 5 nM; 60-minute incubation at 22° C.; read-out: Y1230 H IC50. On the procedure: as §1

The next experiment concerns the target T7, human MET kinase Y1230S (Homo sapiens, UniProt P08581, Y1230S).
T7 construct: GST-tagged recombinant human MET kinase domain; purchased Signal Chem
Nature of the experiment: c-Met Enzyme Assay, Y1230S mutant. The format is binding. To be noted: averaged IC50; Y1230S 8 nM; 60-minute incubation at 22° C.; read-out: Y1230 S IC50. On the procedure: as §1

T7 sequence (P08581 1078-1345 Y1230S): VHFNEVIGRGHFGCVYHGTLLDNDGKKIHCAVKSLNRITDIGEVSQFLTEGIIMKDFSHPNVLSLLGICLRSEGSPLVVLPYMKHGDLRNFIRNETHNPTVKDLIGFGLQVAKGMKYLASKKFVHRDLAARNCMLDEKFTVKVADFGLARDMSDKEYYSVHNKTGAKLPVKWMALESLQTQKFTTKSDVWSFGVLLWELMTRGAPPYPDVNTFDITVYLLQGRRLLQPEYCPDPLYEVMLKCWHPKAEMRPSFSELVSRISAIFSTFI
T5 sequence (P08581 1078-1345 D1228H): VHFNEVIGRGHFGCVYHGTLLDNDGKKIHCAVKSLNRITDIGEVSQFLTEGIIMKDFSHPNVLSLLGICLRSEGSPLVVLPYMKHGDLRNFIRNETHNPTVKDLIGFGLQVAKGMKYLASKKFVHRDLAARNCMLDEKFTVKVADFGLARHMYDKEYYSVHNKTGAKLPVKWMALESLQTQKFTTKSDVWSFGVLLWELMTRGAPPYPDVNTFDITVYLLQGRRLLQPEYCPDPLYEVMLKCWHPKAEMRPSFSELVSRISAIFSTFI
T3 sequence (P08581 1078-1345 D1228N): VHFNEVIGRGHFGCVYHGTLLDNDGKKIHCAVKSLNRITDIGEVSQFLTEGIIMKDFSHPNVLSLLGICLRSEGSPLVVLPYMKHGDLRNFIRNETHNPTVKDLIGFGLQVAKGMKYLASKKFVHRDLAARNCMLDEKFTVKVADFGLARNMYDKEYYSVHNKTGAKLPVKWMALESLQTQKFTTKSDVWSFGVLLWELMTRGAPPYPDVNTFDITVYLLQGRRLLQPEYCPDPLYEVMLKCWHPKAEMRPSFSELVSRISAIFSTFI
T6 sequence (P08581 1078-1345 Y1230H): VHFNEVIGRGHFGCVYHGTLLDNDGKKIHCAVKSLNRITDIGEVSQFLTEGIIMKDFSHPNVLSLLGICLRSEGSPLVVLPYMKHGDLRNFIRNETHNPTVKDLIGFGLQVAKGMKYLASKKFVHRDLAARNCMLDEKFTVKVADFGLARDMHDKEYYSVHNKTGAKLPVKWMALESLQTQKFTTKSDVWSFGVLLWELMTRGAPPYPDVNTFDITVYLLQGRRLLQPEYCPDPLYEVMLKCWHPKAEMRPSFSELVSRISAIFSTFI
T1 sequence (P08581 1078-1345 limits assumed): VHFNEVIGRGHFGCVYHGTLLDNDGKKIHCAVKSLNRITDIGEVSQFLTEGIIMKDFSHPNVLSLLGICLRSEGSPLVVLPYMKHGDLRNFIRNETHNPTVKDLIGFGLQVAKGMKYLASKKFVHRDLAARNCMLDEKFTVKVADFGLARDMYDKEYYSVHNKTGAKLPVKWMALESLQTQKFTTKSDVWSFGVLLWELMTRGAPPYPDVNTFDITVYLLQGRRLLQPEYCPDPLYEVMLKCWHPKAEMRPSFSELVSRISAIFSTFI

As a reminder, the IC50 is the concentration at which inhibition is half-maximal. Turning to `COc1cc2nccc(Oc3ccc(NC(=O)c4cn(C(C)C)cc(-c5ccc(F)cc5)c4=O)nc3)c2cc1OC` [Example 1], the IC50 in experiment [1] was determined as 2.4 nM; in experiment [2], 3 nM; on human MET kinase D1228N it was 3.4 nM; in experiment [3], 1 nM; on human MET kinase D1228H, 1.8 nM; on human MET kinase Y1230H, 2.9 nM. Besides, the IC50 on human MET kinase Y1230S was 1.3 nM.

As to `COc1cc2nccc(Oc3ccc(NC(=O)c4cn(C)cc(-c5ccc(F)cc5)c4=O)nc3)c2cc1OC` [Example 2], the IC50 was 6.4 nM in experiment [1]; 3 nM in experiment [2]; 29.3 nM on human MET kinase D1228N; 1 nM in experiment [3]; 16.6 nM on human MET kinase D1228H; 18.2 nM on human MET kinase Y1230H. Further, on human MET kinase Y1230S, the IC50 came out at 9.8 nM.

`CCn1cc(C(=O)Nc2ccc(Oc3ccnc4cc(OC)c(OC)cc34)cn2)c(=O)c(-c2ccc(F)cc2)c1` [Example 3]: the IC50 came to 3.2 nM in experiment [1]; 3 nM in experiment [2]; 7.4 nM at human MET kinase D1228N; 1 nM in experiment [3]; 4.7 nM at human MET kinase D1228H; 6.4 nM on human MET kinase Y1230H. In addition, the IC50 on human MET kinase Y1230S was determined as 4.7 nM.

With `COc1cc2nccc(Oc3ccc(NC(=O)c4cn(C(C)C)cc(-c5ccc(F)cc5F)c4=O)nc3)c2cc1OC` [Example 4], the IC50 was determined as 2.1 nM in experiment [1]; 2 nM in experiment [2]; 6.5 nM on human MET kinase D1228N; 1 nM in experiment [3]; 3.2 nM on human MET kinase D1228H; 4.9 nM on human MET kinase Y1230H. The IC50 at human MET kinase Y1230S came to 2.2 nM.

Turning to `COc1cc2nccc(Oc3ccc(NC(=O)c4cn(C(C)C)cc(-c5ccc(Cl)cc5)c4=O)nc3)c2cc1OC` [Example 5, 5-(4-chlorophenyl)-N-(5-((6,7-dimethoxyquinolin-4-yl)oxy)pyridin-2-yl)-1-isopropyl-4-oxo-1,4-dihydropyridine-3-carboxamide], the IC50 in experiment [1] was determined as 6.4 nM; in experiment [2], 4 nM; at human MET kinase D1228N, 16.1 nM; in experiment [3], 2 nM; on human MET kinase D1228H, 9.6 nM; at human MET kinase Y1230H it was 16.6 nM. Moreover, the half-inhibitory concentration (IC50) at human MET kinase Y1230S amounted to 5.4 nM.

On to `COc1cc2nccc(Oc3ccc(NC(=O)c4cn(C(C)C)cc(-c5ccc(F)c(F)c5)c4=O)nc3)c2cc1OC` [Example 6], for which the IC50 in experiment [1] worked out at 8.8 nM; in experiment [2] it was 5 nM; on human MET kinase D1228N it was 24.2 nM; in experiment [3], 2 nM; at human MET kinase D1228H it was 12.1 nM; at human MET kinase Y1230H it was 24.2 nM. The IC50 at human MET kinase Y1230S was determined as 11.9 nM.

With `COCCn1cc(C(=O)Nc2ccc(Oc3ccnc4cc(OC)c(OC)cc34)cn2)c(=O)c(-c2ccc(F)cc2)c1` [Example 7, N-(5((6,7-dimethoxyquinolin-4-yl)oxy)pyridin-2-yl)-5-(4-fluorophenyl)-1-(2-methoxyethyl)-4-oxo-1,4-dihydropyridine-3-carboxamide], the IC50 in experiment [1] is 3.1 nM; in experiment [2] it was 3 nM; at human MET kinase D1228N, 6.4 nM; in experiment [3], 2 nM; on human MET kinase D1228H it was 2 nM; at human MET kinase Y1230H, 5.4 nM. Moreover, at human MET kinase Y1230S, the IC50 amounted to 2.1 nM.

With `COc1cc2nccc(Oc3ccc(NC(=O)c4cn(CC5CCOCC5)cc(-c5ccc(F)cc5)c4=O)nc3)c2cc1OC` [Example 8, N-(5-((6,7-dimethoxyquinolin-4-yl)oxy)pyridin-2-yl)-5-(4-fluorophenyl)-4-oxo-1-((tetrahydro-2H-pyran-4-yl)methyl)-1,4-dihydropyridine-3-carboxamide], the half-maximal inhibitory concentration (IC50) was found to be 4.1 nM in experiment [1]; 4 nM in experiment [2]; 10.7 nM on human MET kinase D1228N; 2 nM in experiment [3]; 7.2 nM on human MET kinase D1228H; 8.6 nM on human MET kinase Y1230H. In addition, the IC50 at human MET kinase Y1230S stood at 4.3 nM.

For the compound `COc1cc2nccc(Oc3ccc(NC(=O)c4cn(CC(C)(C)O)cc(-c5ccc(F)cc5)c4=O)nc3)c2cc1OC` [Example 9, N-(5-((6,7-dimethoxyquinolin-4-yl)oxy)pyridin-2-yl)-5-(4-fluorophenyl)-1-(2-hydroxy-2-methylpropyl)-4-oxo-1,4-dihydropyridine-3-carboxamide], the IC50 came to 2.9 nM in experiment [1]; 3 nM in experiment [2]; 15.8 nM on human MET kinase D1228N; 2 nM in experiment [3]; 10 nM on human MET kinase D1228H; 13.1 nM on human MET kinase Y1230H. In addition, the IC50 at human MET kinase Y1230S came to 9.1 nM.

With `COc1cc2nccc(Oc3ccc(NC(=O)c4cn(C(C)C)c(C(C)C)c(-c5ccc(F)cc5)c4=O)nc3)c2cc1OC` [Example 38, N-(5-((6,7-dimethoxyquinolin-4yl)oxy)pyridin-2-yl)-5-(4-fluorophenyl)-1,6-diisopropyl-4-oxo-1,4-dihydropyridine-3-carboxamide], the IC50 in experiment [2] turned out to be 6 nM; in experiment [3] it was 3 nM.

Regarding `COc1cc2nc(C)cc(Oc3ccc(NC(=O)c4cn(C(C)C)cc(-c5ccc(F)cc5)c4=O)nc3)c2cc1OC` [Example 53, N-(5-((6,7-dimethoxy-2-methylquinolin-4-yl)oxy)pyridin-2-yl)-5-(4-fluorophenyl)-1-isopropyl-4-oxo-1,4-dihydropyridine-3-carboxamide], the IC50 in experiment [1] is 3070 nM; in experiment [2] it was 950 nM; in experiment [3], 448 nM; on human MET kinase D1228H, 4220 nM; on human MET kinase Y1230H it was 1670 nM; on human MET kinase Y1230S, 3710 nM.
